Data from patent publication US9260429B2, “Pyrido[3,4-B]indoles and methods of use” (Medivation Technologies, Inc., priority 2008, dated 2016).

Experiments:
[1] = target: T1, human recombinant serotonin (5-Hydroxytryptamine) 5-HT6 receptor (Homo sapiens, UniProt P50406); assay: Serotonin 5-HT6 radioligand binding ([3H]LSD); conditions: 2 h; read-out: Percent Inhibition of ligand binding Serotonin (1 μM ligand concentration) 5-HT6
T1 construct: expressed in transfected cells; host or cells: human HeLa cells
Protocol: To evaluate in radioligand binding assays the activity of compounds of the invention, human recombinant serotonin (5-Hydroxytryptamine) 5-HT6 receptor expressed in human HeLa cells (Monsma, F. J. Jr. et al., Mol. Pharmacol. 43:320, 1993) in a modified Tris-HCl buffer (50 mM Tris-HCl, pH 7.4, 150 mM NaCl, 2 mM Ascorbic Acid, 0.001% BSA) was used. Compounds of the invention were incubated with 1.5 nM [3H]Lysergic acid diethylamide (LSD) for 120 minutes at 37° C. Non-specific binding was estimated in the presence of […] Serotonin (5-HT). Receptor proteins were filtered and washed, the filters were then counted to determine [3H]LSD specifically bound. Compounds were screened at 1 μM or lower, using 1% DMSO as vehicle. Biochemical assay results are presented as the percent inhibition of specific binding in Table 5.

[2] = target: T2, human recombinant histamine H2 receptor (Homo sapiens, UniProt P25021); assay: Histamine H2 radioligand binding ([125I]Aminopotentidine); conditions: 1 μM; inhibition of specific [125I]Aminopotentidine binding; read-out: Binding data (Percentage Inhibition) Histamine Binding (1 μM) H2
T2 construct: expressed in transfected cells; host or cells: CHO-K1 cells
Protocol: To evaluate in radioligand binding assays the activity of compounds of the invention, human recombinant histamine H2 receptor expressed in Chinese hamster ovary (CHO) K1 cells (Ruat, M., Proc. Natl. Acad. Sci. USA. 87(5):1658, 1990) in a 50 mM Phosphate buffer, pH 7.4 was used. Compounds of the invention were incubated with 0.1 nM [^125I]Aminopotentidine for 120 minutes at 25° C. Non-specific binding was estimated in the presence of 3 μM Tiotidine. Receptor proteins were filtered and washed, the filters were then counted to determine [^125I]Aminopotentidine specifically bound. Compounds were screened at 1 μM or lower, using 1% DMSO as vehicle. Biochemical assay results are presented as the percent inhibition of specific binding in Table 3.

[3] = target: T3, human recombinant serotonin (5-Hydroxytryptamine) 5-HT2C receptor (Homo sapiens, UniProt P28335); assay: Serotonin 5-HT2C radioligand binding ([3H]Mesulergine); conditions: 1 h; read-out: Percent Inhibition of ligand binding Serotonin (1 μM ligand concentration) 5-HT2C
T3 construct: expressed in transfected cells; host or cells: CHO-K1 cells
T3 sequence (P28335 33-458): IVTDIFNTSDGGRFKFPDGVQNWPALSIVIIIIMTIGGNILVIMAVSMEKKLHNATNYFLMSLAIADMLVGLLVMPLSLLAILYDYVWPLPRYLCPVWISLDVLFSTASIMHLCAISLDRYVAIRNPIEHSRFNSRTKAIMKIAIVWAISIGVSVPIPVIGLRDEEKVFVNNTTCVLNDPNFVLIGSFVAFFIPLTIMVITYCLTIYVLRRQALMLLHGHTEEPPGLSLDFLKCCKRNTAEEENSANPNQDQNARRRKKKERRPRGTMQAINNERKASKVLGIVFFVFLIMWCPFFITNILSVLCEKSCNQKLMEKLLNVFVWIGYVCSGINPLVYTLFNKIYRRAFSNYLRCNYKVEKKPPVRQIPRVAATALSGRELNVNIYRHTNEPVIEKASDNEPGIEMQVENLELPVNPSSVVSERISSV
Protocol: Compounds of the invention were incubated with 1 nM [^3H]Mesulergine for 60 minutes at 25° C. Non-specific binding was estimated in the presence of 1 μM Mianserin. Receptor proteins were filtered and washed, the filters were then counted to determine [^3H]Mesulergine specifically bound. […] Biochemical assay results are presented as the percent inhibition of specific binding in Table 5.

[4] = target: T4, human recombinant serotonin (5-Hydroxytryptamine) 5-HT7 receptor (Homo sapiens, UniProt P34969); assay: Serotonin 5-HT7 radioligand binding ([3H]LSD); conditions: 2 h; read-out: Percent Inhibition of ligand binding Serotonin (1 μM ligand concentration) 5-HT7
T4 construct: expressed in transfected cells; host or cells: CHO cells
Protocol: To evaluate in radioligand binding assays the activity of compounds of the invention, human recombinant serotonin (5-Hydroxytryptamine) 5-HT7 receptor expressed in Chinese hamster ovary (CHO) cells (Roth, B. L. et al., J. Pharmacol. Exp. Ther. 268:1403, 1994; Shen, Y. et al., J. Biol. Chem. 268:18200, 1993) in a modified Tris-HCl buffer (50 mM Tris-HCl, pH 7.4, 10 mM MgCl2, 0.5 mM EDTA) was used. Compounds of invention were incubated with 5.5 nM [^3H]Lysergic acid diethylamide (LSD) for 2 hours at 25° C. Non-specific binding was estimated in the presence of […] Serotonin (5-HT). Receptor proteins were filtered and washed, the filters were then counted to determine [^3H]LSD specifically bound. Compounds were screened at 1 μM or lower, using 1% DMSO as vehicle. Biochemical assay results are presented as the percent inhibition of specific binding in Table 5.

[5] = target: T5, human recombinant serotonin (5-Hydroxytryptamine) 5-HT2A receptor (Homo sapiens, UniProt P28223); assay: Serotonin 5-HT2A radioligand binding ([3H]Ketanserin); conditions: 1 h; read-out: Percent Inhibition of ligand binding Serotonin (1 μM ligand concentration) 5-HT2A
T5 construct: expressed in transfected cells; host or cells: CHO-K1 cells
Protocol: To evaluate in radioligand binding assays the activity of compounds of the invention, human recombinant serotonin (5-Hydroxytryptamine) 5-HT2A receptor expressed in Chinese hamster ovary (CHO-K1) cells (Bonhaus, D. W. et al. Br. J. Pharmacol. 115:622, 1995; Saucier, C. and Albert, P. R., J. Neurochem. 68:1998, 1997) in a 50 mM Tris-HCl buffer, pH 7.4, was used. Compounds of the invention were incubated with 0.5 nM [^3H]Ketanserin for 60 minutes at 25° C. Non-specific binding was estimated in the presence of 1 μM Mianserin. Receptor proteins were filtered and washed, the filters were then counted to determine [^3H]Ketanserin specifically bound. Compounds were screened at 1 μM or lower, using 1% DMSO as vehicle. Biochemical assay results are presented as the percent inhibition of specific binding in Table 5.

[6] = target: T6, human recombinant dopamine D2L receptor (Homo sapiens, UniProt P14416); assay: Dopamine D2L radioligand binding ([3H]Spiperone); conditions: 2 h, 1 μM ligand conc.; read-out: Percent Inhibition of ligand binding Dopamine (1 μM ligand conc.) D2L
T6 construct: expressed in transfected cells; host or cells: CHO cells
Protocol: To evaluate in radioligand binding assays the activity of compounds of the invention, human recombinant dopamine D2L receptor expressed in Chinese hamster ovary (CHO) cells (Grandy, D. K. et al. Proc. Natl. Acad. Sci. USA. 86:9762, 1989; Hayes, G. et al., Mol. Endocrinol. 6:920, 1992) in a modified Tris-HCl buffer (50 mM Tris-HCl, pH 7.4, 1.4 mM Ascorbic Acid, 0.001% BSA, 150 mM NaCl) was used. Compounds of the invention were incubated with 0.16 nM [^3H]Spiperone for 120 minutes at 25° C. Non-specific binding was estimated in the presence of […] Haloperidol. Receptor proteins were filtered and washed, the filters were then counted to determine [^3H]Spiperone specifically bound. Compounds were screened at 1 μM or lower, using 1% DMSO as vehicle. Biochemical assay results are presented as the percent inhibition of specific binding in Table 4.

[7] = target: T7, human recombinant histamine H1 receptor (Homo sapiens, UniProt P35367); assay: Histamine H1 radioligand binding ([3H]Pyrilamine); conditions: 1 μM; read-out: Binding data (Percentage Inhibition) Histamine Binding (1 μM) H1
T7 construct: expressed in transfected cells; host or cells: CHO cells
Protocol: To evaluate in radioligand binding assays the activity of compounds of the invention, human recombinant histamine H1 receptor expressed in Chinese hamster ovary (CHO) cells (De Backer, M. D. et al., Biochem. Biophys. Res. Comm. 197(3):1601, 1993) in a modified Tris-HCl buffer (50 mM Tris-HCl, pH 7.4, 2 mM MgCl2, 100 mM NaCl, 250 mM Sucrose) was used. Compounds of the invention were incubated with 1.2 nM [^3H]Pyrilamine for 180 minutes at 25° C. Non-specific binding was estimated in the presence of 1 μM pyrilamine. Receptor proteins were filtered and washed, the filters were then counted to determine [^3H]Pyrilamine specifically bound. […] Biochemical assay results are presented as the percent inhibition of specific binding in Table 3.

neuronal cells = conditions: cited from earlier work
[8] = tested on: cells treated with ionomycin; conditions: after treatment with the cell toxin ionomycin; dose dependent; cited from earlier work
brain cells (neurons) = conditions: preclinical models of Alzheimer's disease and Huntington's disease; cited from earlier work

T6 sequence (P14416 whole entry): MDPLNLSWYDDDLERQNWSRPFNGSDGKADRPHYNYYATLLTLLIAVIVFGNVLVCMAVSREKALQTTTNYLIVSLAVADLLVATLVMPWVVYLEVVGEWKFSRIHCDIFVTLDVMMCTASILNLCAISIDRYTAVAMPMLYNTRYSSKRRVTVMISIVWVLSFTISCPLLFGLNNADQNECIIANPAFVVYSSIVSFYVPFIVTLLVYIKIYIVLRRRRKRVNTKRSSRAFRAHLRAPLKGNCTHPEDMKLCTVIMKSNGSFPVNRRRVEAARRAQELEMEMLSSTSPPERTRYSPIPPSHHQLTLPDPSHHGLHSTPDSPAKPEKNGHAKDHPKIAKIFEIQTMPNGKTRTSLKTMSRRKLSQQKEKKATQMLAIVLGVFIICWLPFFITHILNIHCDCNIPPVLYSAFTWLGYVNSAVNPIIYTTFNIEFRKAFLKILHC
T2 sequence (P25021 whole entry): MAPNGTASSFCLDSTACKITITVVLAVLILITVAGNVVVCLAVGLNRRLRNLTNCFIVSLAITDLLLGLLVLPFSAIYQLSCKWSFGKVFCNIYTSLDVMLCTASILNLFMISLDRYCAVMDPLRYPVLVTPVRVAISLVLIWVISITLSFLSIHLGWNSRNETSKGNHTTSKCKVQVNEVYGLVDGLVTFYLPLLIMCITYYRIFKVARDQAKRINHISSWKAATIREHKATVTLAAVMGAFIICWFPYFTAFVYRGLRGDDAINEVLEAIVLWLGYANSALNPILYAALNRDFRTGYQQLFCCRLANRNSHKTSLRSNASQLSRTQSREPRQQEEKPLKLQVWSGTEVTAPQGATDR
T1 sequence (P50406 whole entry): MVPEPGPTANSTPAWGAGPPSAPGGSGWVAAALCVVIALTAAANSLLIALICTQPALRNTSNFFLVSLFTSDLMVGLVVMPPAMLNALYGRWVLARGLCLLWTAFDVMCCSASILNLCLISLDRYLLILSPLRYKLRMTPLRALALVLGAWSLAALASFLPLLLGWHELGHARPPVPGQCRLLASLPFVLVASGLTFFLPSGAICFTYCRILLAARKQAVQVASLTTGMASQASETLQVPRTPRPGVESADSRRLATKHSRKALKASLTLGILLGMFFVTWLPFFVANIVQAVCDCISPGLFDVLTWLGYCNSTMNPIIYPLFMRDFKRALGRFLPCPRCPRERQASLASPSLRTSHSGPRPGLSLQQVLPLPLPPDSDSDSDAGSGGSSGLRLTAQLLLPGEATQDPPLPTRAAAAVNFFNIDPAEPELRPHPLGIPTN
T7 sequence (P35367 whole entry): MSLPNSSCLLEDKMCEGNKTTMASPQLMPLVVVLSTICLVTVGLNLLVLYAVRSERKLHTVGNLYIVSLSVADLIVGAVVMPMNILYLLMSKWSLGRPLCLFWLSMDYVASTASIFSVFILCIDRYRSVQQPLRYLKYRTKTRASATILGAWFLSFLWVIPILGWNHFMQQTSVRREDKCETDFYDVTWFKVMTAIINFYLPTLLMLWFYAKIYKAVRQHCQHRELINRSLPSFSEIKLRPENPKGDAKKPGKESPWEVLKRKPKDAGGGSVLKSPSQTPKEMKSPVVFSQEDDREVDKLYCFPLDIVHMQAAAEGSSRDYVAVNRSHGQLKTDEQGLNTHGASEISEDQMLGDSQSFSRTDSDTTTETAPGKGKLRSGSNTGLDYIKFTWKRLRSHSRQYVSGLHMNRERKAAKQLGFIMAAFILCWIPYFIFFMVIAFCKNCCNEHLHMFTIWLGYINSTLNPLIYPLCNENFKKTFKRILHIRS
T5 sequence (P28223 whole entry): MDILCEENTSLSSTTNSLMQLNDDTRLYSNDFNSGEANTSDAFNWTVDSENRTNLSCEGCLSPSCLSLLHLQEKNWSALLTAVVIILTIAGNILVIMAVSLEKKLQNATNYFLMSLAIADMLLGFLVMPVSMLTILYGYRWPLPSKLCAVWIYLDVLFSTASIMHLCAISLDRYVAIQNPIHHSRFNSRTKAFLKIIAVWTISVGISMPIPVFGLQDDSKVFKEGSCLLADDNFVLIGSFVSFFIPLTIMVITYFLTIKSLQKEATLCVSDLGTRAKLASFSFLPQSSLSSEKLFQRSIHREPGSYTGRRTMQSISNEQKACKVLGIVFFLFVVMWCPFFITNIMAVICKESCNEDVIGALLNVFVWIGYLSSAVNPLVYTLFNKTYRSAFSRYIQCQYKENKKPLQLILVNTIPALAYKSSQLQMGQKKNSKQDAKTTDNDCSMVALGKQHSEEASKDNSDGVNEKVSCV
T4 sequence (P34969 whole entry): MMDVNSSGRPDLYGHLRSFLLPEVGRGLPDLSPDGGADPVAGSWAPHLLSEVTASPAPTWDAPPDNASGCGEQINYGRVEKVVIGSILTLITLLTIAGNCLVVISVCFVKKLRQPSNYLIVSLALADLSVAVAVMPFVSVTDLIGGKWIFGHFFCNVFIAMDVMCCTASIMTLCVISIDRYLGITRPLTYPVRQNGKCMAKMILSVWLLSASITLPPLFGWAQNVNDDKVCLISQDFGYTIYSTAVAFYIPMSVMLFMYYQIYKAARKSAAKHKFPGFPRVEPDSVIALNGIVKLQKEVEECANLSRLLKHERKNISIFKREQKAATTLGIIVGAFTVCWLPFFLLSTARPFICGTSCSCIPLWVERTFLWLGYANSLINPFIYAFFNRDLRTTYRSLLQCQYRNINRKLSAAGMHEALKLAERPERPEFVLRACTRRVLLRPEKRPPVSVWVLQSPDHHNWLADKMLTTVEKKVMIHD

Row | Structure (SMILES) | inhibition at 1 µM [1] [%] | inhibition at 1 µM [2] [%] | inhibition at 1 µM [3] [%] | inhibition at 1 µM [4] [%] | inhibition at 1 µM [5] [%] | inhibition at 1 µM [6] [%] | inhibition at 1 µM [7] [%] | neurite outgrowth and neurogenesis (neuronal cells) | mitochondrial function [8] | number of surviving cells [8] | death of brain cells (neurons) (brain cells (neurons))
1 | C/C(=C\n1c2c(c3cc(C)ccc31)CCN(C)C2C)c1ccc(Cl)cc1Cl (centres unmarked) [Compound 178] | 25 | 54 | 101 | 59 | 97 | 3 | 44 |  |  |  | 
2 | Cc1ccc2c(c1)c1c(n2CCc2ccc(C)nc2)CCN(C)C1 [Dimebon, dimebon] |  |  |  |  |  |  |  | promote neurite outgrowth and neurogenesis | improved mitochondrial function | increased the number of surviving cells | inhibit the death of brain cells (neurons)
